{"source": "patent US8957094B2", "about": "“Therapeutic agent or prophylactic agent for fibromyalgia” (Toray Industries, Inc., priority 2010, dated 2015)", "key": {"[1]": {"test_system": "mouse partial sciatic nerve ligation model", "test": "Mouse partial sciatic nerve ligation model (Seltzer model), von Frey test (neuropathic pain)", "assay_type": "in vivo", "design": "von Frey Total Score of 1 Hour after Oral Administration (Mean ± S.E.), Test Compound-Administered Group: scale not given here", "conditions": "for Score Improvement %: 1 hour after administration, relative to vehicle and sham surgery groups; for von Frey Total Score of 1 Hour after Oral Administration (Mean ± S.E.), Test Compound-Administered Group: n = 5-6, 7 days after ligation", "method": "Mouse models of partial sciatic nerve ligation were prepared according to Seltzer's method (Malmberg et al., Pain, 1998, vol. 76, p. 215-222). Male ICR mice of 5 weeks old were anesthetized with Sodium pentobarbital (70 mg/kg, i.p.), and thereafter, the sciatic nerve at the femoral region of the right hindlimb of each mouse was exposed, and the sciatic nerve was triply ligated tightly with silk suture of 8-0 (NATSUME SEISAKUSHO) under microscope so that only half thickness of the nerve was trapped in the ligature, which mice were used as a ligation group. The mice whose sciatic nerves were exposed but not ligated were used as a sham surgery group.\nEvaluation of neuropathic pain (hereinafter “von Frey test”) was carried out as follows. Mice were conditioned for at least 1 hour in an acryl cage for measurement (NATSUME SEISAKUSHO) placed on a wire net. Thereafter, using a filament (North Coast Medical, Inc. CA, USA) which exerted a pressure of 0.16 g, the mice were subjected to mechanical tactile stimulus by applying the filament to the plantar surface of both hindpaws 3 times, each for 3 seconds, with an interval of 3 seconds.\nSeven days after the sciatic nerve ligation, test compounds were orally administered to the mice. Prior to the oral administration of the test compounds, the von Frey test was carried out to split the animals of the ligation group into vehicle groups and test compound-administered groups so that the sums of the total scores of the groups were equalized. The mice of the sham surgery groups, the vehicle groups and the test compound-administered groups were subjected to the von Frey test 1 hour, 2 hours and 3 hours after oral administration of a vehicle or a test compound, and the obtained scores were used as an indicator of analgesic effect. As a vehicle of test compound solution or suspension, DMSO:Tween80:distilled water (1:1:8), 27% HP-β-CD or 0.5% MC was used.\nFor evaluation of drug efficacy, data were statistically processed by unpaired multigroup t test (adjusted by Dunnett), taking the vehicle group of each measurement time as a control."}, "[2]": {"test_system": "rat fibromyalgia model", "test": "Effects on rat fibromyalgia model (acidic saline injection; allodynia by von Frey filaments)", "assay_type": "in vivo", "conditions": "compared with the vehicle group, Day 7, 1-3 h after dosing, p<0.05, FIG. 1", "method": "In the experiments, 5 to 6 male SD rats of 6 to 7 weeks old were used for one experimental group. One hundred microliters of acidic physiological saline with pH of 4.0 was injected twice (taking the day when administration of acidic physiological saline started as Day 1, the administration was carried out once on Day 1 and once on Day 6) to gastrocnemius muscle of right hindlimb of each anesthetized rat to prepare a rat fibromyalgia model (Sluka et al., J. Pharmacol. Exp. Ther., 2002, vol. 302, p. 1146; Nagakura et al., Pain, 2009, vol. 146, p. 26; Sluka et al., Pain, 2009, vol. 146, p. 3), which was considered to reflect clinical symptoms of fibromyalgia based on their pharmacological characteristics and thus widely used in basic studies of fibromyalgia. In the same manner, physiological saline was administered to the control group.\nFor measurement of allodynia observed in a rat fibromyalgia model, a 50% withdrawal threshold (g) was determined using von Frey filaments in accordance with the method described in Chaplan et al., J. Neurosci. Methods, 1994, vol. 53, p. 55. On Day 7, allodynia was measured before oral administration of the test compound as Pre, and 1-, 2- and 3-hour after oral administration of the test compound. Rats which developed allodynia by receiving intramuscular injection of acidic physiological saline were used as a rat fibromyalgia model to evaluate the analgesic effect of the test compound. The term “rats which developed allodynia” herein means the rats showing a 50% withdrawal threshold (g) (the mean value of right and left hind paws) of 6 g or less. Pregabalin was used as a positive control.\nCompound 3, which is included in Compound (I), was suspended in 0.5% methylcellulose solution (hereinafter “0.5% MC”) to a concentration of 5 mg/mL or 10 mg/mL, and orally administered at an administration volume of 1 mL per 1 kg body weight. Pregabalin was suspended in 0.5% MC to a concentration of 10 mg/mL, and orally administered at an administration volume of 1 mL per 1 kg body weight. The vehicle group received oral administration of 0.5% MC. […]"}, "[3]": {"test_system": "fibromyalgia", "conditions": "reported, Abeles et al., Am J. Med., 2008; cited from earlier work"}}, "data": [{"smiles": "COc1ccc(-n2nc(C3(O)CCC(O)CC3)cc2-c2ccc(C)cc2)cc1", "note": "(single isomer, unassigned) [Compound 2, 1-(1-(4-methoxyphenyl)-5-(p-tolyl)-1H-pyrazol-3-yl)cyclohexan-trans-1,4-diol]", "values": [{"measurement": "Score Improvement %", "setting": "[1]; dose 0.3 mg/kg oral, 0.3 mg/kg", "value": 104, "unit": "%"}, {"measurement": "von Frey Total Score of 1 Hour after Oral Administration (Mean ± S.E.), Test Compound-Administered Group", "setting": "[1]; dose 0.3 mg/kg oral, 0.3 mg/kg", "value": "0.8 ± 0.5"}]}, {"smiles": "COc1ccc(-c2cc(C3(O)CCC(O)CC3)nn2-c2ccc(OC)cc2)cc1", "note": "(stereo not drawn) [Compound 8, 1-(1,5-bis(4-methoxyphenyl)-1H-pyrazol-3-yl)cyclohexan-cis-1,4-diol]", "values": [{"measurement": "von Frey Total Score of 1 Hour after Oral Administration (Mean ± S.E.), Test Compound-Administered Group", "setting": "[1]; dose 10 mg/kg oral", "value": "2.2 ± 0.5"}]}, {"smiles": "COc1ccc(-n2nc(C3(O)CCC(O)(C(F)(F)F)CC3)cc2-c2ccc(C)cc2)cc1", "note": "(stereo not drawn) [Compound 10, 1-(1-(4-methoxyphenyl)-5-(p-tolyl)-1H-pyrazol-3-yl)-4-(trifluoromethyl)cyclohexan-cis-1,4-diol]", "values": [{"measurement": "von Frey Total Score of 1 Hour after Oral Administration (Mean ± S.E.), Test Compound-Administered Group", "setting": "[1]; dose 1 mg/kg oral", "value": "1.5 ± 0.5"}]}, {"smiles": "COc1ccc(-n2nc(C3(O)CCC(O)CC3)cc2-c2ccc(C)cc2)cc1F", "note": "(stereo not shown) [Compound 54]", "values": [{"measurement": "von Frey Total Score of 1 Hour after Oral Administration (Mean ± S.E.), Test Compound-Administered Group", "setting": "[1]; dose 10 mg/kg oral", "value": "1.2 ± 0.6"}]}, {"smiles": "COc1ccc(-n2nc(C3(O)CCC(O)CC3)cc2-c2ccc(C)cc2)cc1", "note": "(single isomer, unassigned) [Compound 3, 1-(1-(4-methoxyphenyl)-5-(p-tolyl)-1H-pyrazol-3-yl)cyclohexan-cis-1,4-diol]", "values": [{"measurement": "allodynia observed in the rat fibromyalgia model (50% withdrawal threshold)", "setting": "[2]; oral administration 5 mg/kg", "value": "significantly improved allodynia"}, {"measurement": "allodynia observed in the rat fibromyalgia model (50% withdrawal threshold)", "setting": "[2]; oral administration 10 mg/kg", "value": "significantly improved allodynia"}, {"measurement": "Score Improvement %", "setting": "[1]; dose 0.3 mg/kg oral, 0.3 mg/kg", "value": 83, "unit": "%"}, {"measurement": "von Frey Total Score of 1 Hour after Oral Administration (Mean ± S.E.), Test Compound-Administered Group", "setting": "[1]; dose 0.3 mg/kg oral, 0.3 mg/kg", "value": "1.2 ± 0.8"}]}, {"smiles": "CC(C)Cc1ccc(C(C)C(=O)O)cc1", "note": "(stereo not shown) [ibuprofen]", "values": [{"measurement": "analgesic effect in treating fibromyalgia", "setting": "[3]", "value": "any statistically significant analgesic effect is not observed"}]}, {"smiles": "COc1ccc(-n2nc(C3(O)CCC(C(=O)O)CC3)cc2-c2ccc(C)cc2)cc1", "note": "(stereo not drawn) [Compound 16, 4-hydroxy-4-(1-(4-methoxyphenyl)-5-(p-tolyl)-1H-pyrazol-3-yl)-cis-cyclohexanecarboxylic acid]", "values": [{"measurement": "von Frey Total Score of 1 Hour after Oral Administration (Mean ± S.E.), Test Compound-Administered Group", "setting": "[1]; dose 1 mg/kg oral", "value": "2.3 ± 0.5"}]}, {"smiles": "COc1ccc(-n2nc(C3(O)CCC(O)CC3)cc2-c2ccc(C)c(F)c2)cc1", "note": "(stereo not shown) [Compound 55]", "values": [{"measurement": "von Frey Total Score of 1 Hour after Oral Administration (Mean ± S.E.), Test Compound-Administered Group", "setting": "[1]; dose 3 mg/kg oral", "value": "0.7 ± 0.5"}]}, {"smiles": "COc1ccc(-c2nc(C3(O)CCC(O)CC3)oc2-c2ccc(OC)cc2)cc1", "note": "(stereo not drawn) [Compound 43, 4-(4,5-bis(4-methoxyphenyl)oxazol-2-yl)cyclohexan-cis-1,4-diol]", "values": [{"measurement": "von Frey Total Score of 1 Hour after Oral Administration (Mean ± S.E.), Test Compound-Administered Group", "setting": "[1]; dose 10 mg/kg oral", "value": "0.8 ± 0.7"}]}, {"smiles": "COc1ccc(-n2nc(C3(O)CCC(O)CC3)c(Cl)c2-c2ccc(C)cc2)cc1", "note": "(stereo not drawn) [Compound 9, 1-(4-chloro-1-(4-methoxyphenyl)-5-(p-tolyl)-1H-pyrazol-3-yl)cyclohexan-cis-1,4-diol]", "values": [{"measurement": "von Frey Total Score of 1 Hour after Oral Administration (Mean ± S.E.), Test Compound-Administered Group", "setting": "[1]; dose 10 mg/kg oral", "value": "1.7 ± 0.6"}]}, {"smiles": "CC(C)C[C@H](CN)CC(=O)O", "note": "[pregabalin, reference compound]", "values": [{"measurement": "allodynia observed in the rat fibromyalgia model (50% withdrawal threshold)", "setting": "[2]; oral administration 10 mg/kg", "value": "significantly improved allodynia"}]}, {"smiles": "COc1ccc2cc([C@H](C)C(=O)O)ccc2c1", "note": "[naproxen]", "values": [{"measurement": "analgesic effect in treating fibromyalgia", "setting": "[3]", "value": "any statistically significant analgesic effect is not observed"}]}]}
